From article PMC6556873, “Rapid Covalent-Probe Discovery by Electrophile-Fragment Screening” (Journal of the American Chemical Society, 2019)
Like-named read-outs stand apart in the source and are kept apart here.

Key:
BSA = molecular target: T1, BSA (Bos taurus, UniProt P02769); set-up: Intact protein LC/MS covalent labelling, fragments in pools of five, 200 uM each, 4 °C; details: 24 h, 4 °C, pool of five; 200 µM; covalent
T1 construct: gene ALB

NUDT7 = molecular target: T2, NUDT7 (Homo sapiens, UniProt P0C024); set-up: Intact protein LC/MS covalent labelling, fragments in pools of five, 200 uM each, 4 °C; details: 24 h, 4 °C, pool of five; 200 µM; covalent
T2 construct: residues 14-235, E. coli, pNIC28-Bsa4, N-terminal His6 tag removed by TEV, construct 26672 Da
T2 sequence (P0C024 14-235): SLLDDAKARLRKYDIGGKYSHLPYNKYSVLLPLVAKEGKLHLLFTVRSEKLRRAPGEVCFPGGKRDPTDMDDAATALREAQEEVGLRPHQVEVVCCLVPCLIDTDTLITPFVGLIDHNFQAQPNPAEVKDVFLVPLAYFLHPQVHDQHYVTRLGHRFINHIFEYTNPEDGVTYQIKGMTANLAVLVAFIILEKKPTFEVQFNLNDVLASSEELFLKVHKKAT

OTUB2 (OTUB2A) = molecular target: T3, OTUB2 (OTUB2A) (Homo sapiens, UniProt Q96DC9); set-up: Intact protein LC/MS covalent labelling, fragments in pools of five, 200 uM each, 4 °C; details: 24 h, 4 °C, pool of five; 200 µM; covalent
T3 construct: full length residues 1-234, E. coli BL21(DE3)-R3, His tag removed by TEV, construct 27312 Da
T3 sequence (Q96DC9 1-234): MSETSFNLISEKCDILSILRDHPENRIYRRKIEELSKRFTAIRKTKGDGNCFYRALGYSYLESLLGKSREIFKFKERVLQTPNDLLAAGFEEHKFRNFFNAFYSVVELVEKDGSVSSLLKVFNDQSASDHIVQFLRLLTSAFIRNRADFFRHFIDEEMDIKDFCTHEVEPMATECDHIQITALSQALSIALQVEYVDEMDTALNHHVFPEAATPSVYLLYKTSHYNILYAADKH

PCAF = molecular target: T4, PCAF (Homo sapiens, UniProt Q92831); set-up: Intact protein LC/MS covalent labelling, fragments in pools of five, 200 uM each, 4 °C; details: 24 h, 4 °C, pool of five; 200 µM; covalent
T4 construct: gene KAT2B
T4 sequence (Q92831 whole entry, the tested form may be a part): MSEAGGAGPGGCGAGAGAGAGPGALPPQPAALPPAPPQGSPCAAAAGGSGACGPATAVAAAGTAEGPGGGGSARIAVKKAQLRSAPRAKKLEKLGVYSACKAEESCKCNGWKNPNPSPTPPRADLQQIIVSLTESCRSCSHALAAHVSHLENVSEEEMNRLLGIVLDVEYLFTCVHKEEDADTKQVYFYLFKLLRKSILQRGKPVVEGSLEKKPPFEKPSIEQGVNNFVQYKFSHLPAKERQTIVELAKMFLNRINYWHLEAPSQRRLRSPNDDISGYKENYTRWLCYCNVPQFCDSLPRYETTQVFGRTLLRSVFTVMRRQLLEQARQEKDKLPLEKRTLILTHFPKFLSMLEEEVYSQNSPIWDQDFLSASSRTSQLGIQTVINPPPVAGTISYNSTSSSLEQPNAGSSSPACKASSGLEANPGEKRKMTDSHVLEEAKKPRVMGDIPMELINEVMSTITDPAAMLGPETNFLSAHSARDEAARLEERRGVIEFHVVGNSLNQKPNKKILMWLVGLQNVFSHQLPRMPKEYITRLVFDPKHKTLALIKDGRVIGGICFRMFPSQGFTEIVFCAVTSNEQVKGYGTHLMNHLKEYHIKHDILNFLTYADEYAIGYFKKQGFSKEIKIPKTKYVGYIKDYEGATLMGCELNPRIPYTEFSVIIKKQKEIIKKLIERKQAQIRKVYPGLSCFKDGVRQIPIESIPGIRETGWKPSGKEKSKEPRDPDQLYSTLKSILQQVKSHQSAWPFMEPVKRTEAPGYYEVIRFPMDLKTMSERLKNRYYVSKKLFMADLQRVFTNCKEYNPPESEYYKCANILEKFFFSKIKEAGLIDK

in vitro [1] = assay: in vitro; set-up: species or system CCD841, HEK293; details: human, hb2 cells, read-out: HB-2 Cells Viability (%)
in vitro [2] = assay: in vitro; set-up: species or system HB2, HEK293; details: human, ccd841 cells
in vitro [3] = assay: in vitro; set-up: species or system HB2, CCD841; details: human, hek293 cells

T1 sequence (P02769 whole entry, the tested form may be a part): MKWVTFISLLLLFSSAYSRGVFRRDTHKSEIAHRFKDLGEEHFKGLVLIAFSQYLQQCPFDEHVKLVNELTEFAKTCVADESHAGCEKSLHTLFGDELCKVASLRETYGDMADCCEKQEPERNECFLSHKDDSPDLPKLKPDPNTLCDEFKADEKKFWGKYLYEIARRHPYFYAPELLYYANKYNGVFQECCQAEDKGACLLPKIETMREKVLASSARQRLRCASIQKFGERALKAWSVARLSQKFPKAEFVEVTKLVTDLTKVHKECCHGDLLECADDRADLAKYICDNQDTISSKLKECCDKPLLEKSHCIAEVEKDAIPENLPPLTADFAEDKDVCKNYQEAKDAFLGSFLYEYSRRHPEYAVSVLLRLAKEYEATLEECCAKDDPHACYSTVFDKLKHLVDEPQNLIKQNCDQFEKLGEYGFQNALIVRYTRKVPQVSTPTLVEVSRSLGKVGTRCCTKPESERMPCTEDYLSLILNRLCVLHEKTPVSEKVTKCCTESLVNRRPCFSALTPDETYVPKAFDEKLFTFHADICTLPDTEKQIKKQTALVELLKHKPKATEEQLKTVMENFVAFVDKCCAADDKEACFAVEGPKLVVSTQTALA

BSA (BSA)	NUDT7 (NUDT7)	OTUB2 (OTUB2 (OTUB2A))	PCAF (PCAF)	SMILES	viability at 48 h, 10 µM (in vitro [1]) [%]	viability at 48 h, 10 µM (in vitro [2]) [%]	viability at 48 h, 10 µM (in vitro [3]) [%]
0	0	0	0	Cc1ccc(S(=O)(=O)N2CCN(C(=O)CCl)CC2)c(C)c1 [PCM-0102628]	35.6	82.6	82.4
0	0	0	0	C=CC(=O)N1CCOc2ccccc21 [PCM-0102629]	80.9	86.1	71.1
0	0	0	0	Cc1nc(CN2CCN(C(=O)CCl)CC2)cs1 [PCM-0102630]	92	79.3	67.4
0	0	0	0	C=CC(=O)N1CCN(C)CC1 [PCM-0102634]	99.6	114	131
0	0.17	0	0	CN(Cc1cccs1)C(=O)CCl [PCM-0102636]	11.3	57.7	7
0	0	0	0	C=CC(=O)N1CCC(S(=O)(=O)C(C)C)CC1 [PCM-0102637]	98.6	119	102
0.11	0	0	0	Cc1cc(N2CCN(C(=O)CCl)CC2)nc(C(C)C)n1 [PCM-0102638]	97.7	107	89.8
0	0.12	0	0	C=CC(=O)Nc1ccnn1-c1ccccc1C [PCM-0102643]	87.4	88.7	64.4
0	0	0	0	C=CC(=O)NCC1CCN(C)c2ccccc21 (stereo not drawn) [PCM-0102644]	106	98.5	73
0	0	0	0	C=CC(=O)NC1CCOC2(CCS(=O)(=O)C2)C1 (stereo not drawn) [PCM-0102645]	102	115	110
0	0	0	0	C=CC(=O)N(C1CC1)C1CC(=O)NC1=O (stereo not drawn) [PCM-0102646]	103	98.4	94.9
0.2	0	0	0	C=CC(=O)NCC1CCOCO1 (stereo not drawn) [PCM-0102648]	102	104	88.8
0	0	0.15	0	C=CC(=O)N1CC2CC3CC2C1C3OC (stereo not drawn) [PCM-0102649]	107	118	117
0	0.14	0	0	C=CC(=O)N1CCc2c([nH]c3ccccc23)C1 [PCM-0102650]	100	107	85.6
0	0	0	0	CCNC(=O)NC(=O)CCl [PCM-0102654]	90.8	92.6	82.2
0	0	0	0	CCOC(=O)C1CCN(C(=O)CCl)CC1 [PCM-0102656]	86	90.3	69.4
0	0.06	0.2	0	Cc1c(Cl)cnc(NC(=O)CCl)c1Cl [PCM-0102657]	101	98.2	99.6

BSA (BSA)	NUDT7 (NUDT7)	OTUB2 (OTUB2 (OTUB2A))	PCAF (PCAF)	SMILES	viability at 48 h, 10 µM (in vitro [1]) [%]	viability at 48 h, 10 µM (in vitro [2]) [%]	viability at 48 h, 10 µM (in vitro [3]) [%]
0	0.39	0	0	O=C(CCl)N1N=C(c2ccco2)CC1c1ccsc1 (stereo not drawn) [PCM-0102659]	15.3	15.6	3.5
0.21	0	0.29	0	CC1CCCC(NC(=O)CCl)C1C (stereo not drawn) [PCM-0102663]	98.5	104	87.3
0	0	0	0	CC(C#N)(NC(=O)CCl)C1CC1 (stereo not drawn) [PCM-0102664]	99.7	89.6	80.8
0	0	0.53	0	Cc1cc(NC(=O)CCl)n(-c2ccc(F)cc2)n1 [PCM-0102665]	57	67.6	20.6
0	0.08	0.18	0	C=CC(=O)Nc1cccc(Br)c1 [PCM-0102667]	97.1	89.4	86.4
0	0.14	0	0	CN(C(=O)CCl)c1ccc([N+](=O)[O-])cc1 [PCM-0102669]	12.9	17.3	10.5
0	0	0.48	0	Cl.O=C(CCl)Nc1ccc(N2CCCC2)cc1 [PCM-0102670]	35	41.8	30.3
0	0	0.35	0	O=C(CCl)NCc1ccco1 [PCM-0102671]	102	86	86.2
0	0.1	0	0	CN(Cc1ccco1)C(=O)CCl [PCM-0102672]	51.9	78.1	49.1
0	0.11	0	0	CN(CC(F)(F)F)C(=O)CCl [PCM-0102674]	101	105	101
0	0.14	0	0	O=C(CCl)N1CCCC(C(F)(F)F)C1 (stereo not drawn) [PCM-0102676]	44.7	88.5	54.4
0	0	0	0	C=CC(=O)N1CC(O)CC1c1ccccc1C(F)(F)F (stereo not drawn) [PCM-0102677]	98.4	108	109
0	0.45	0	0	CN(Cc1cc(Cl)cc(Cl)c1)C(=O)CCl [PCM-0102678]	8.3	22	22
0.1	0	0.08	0	C=CC(=O)N1Cc2c(OC)ccc(OC)c2C(O)C1 (stereo not drawn) [PCM-0102680]	104	135	119
0	0	0	0	C=CC(=O)N1CCN(C(=O)C23CC4CC(CC(C4)C2)C3)CC1 [PCM-0102682]	102	103	72.7
0	0	0.12	0	C=CC(=O)N1CCCC1c1cc(C)on1 (stereo not drawn) [PCM-0102683]	103	101	121
